From PubChem BioAssay (NCI)
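Grown in 96-well plates, cells were treated for 48 hours with each compound at five concentrations. Insufficient inhibition: endpoint recorded as highest concentration tested. Here, GI50 denotes the concentration required for 50% inhibition of growth. TGI: concentration producing complete growth inhibition.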

Assays:
Test in all cases: NCI-60 cell line screen, 48 h
UACC-62 melanoma = system: UACC-62 melanoma
HCC-2998 colon = system: HCC-2998 colon
EKVX NSCLC = system: EKVX NSCLC
CCRF-CEM leukemia = system: CCRF-CEM leukemia
OVCAR-3 ovarian = system: OVCAR-3 ovarian
A498 renal = system: A498 renal
MOLT-4 leukemia = system: MOLT-4 leukemia
HOP-92 NSCLC = system: HOP-92 NSCLC
NCI/ADR-RES ovarian = system: NCI/ADR-RES ovarian
U251 CNS = system: U251 CNS
SR leukemia = system: SR leukemia
NCI-H226 lung = system: NCI-H226 lung
M14 melanoma = system: M14 melanoma
MALME-3M melanoma = system: MALME-3M melanoma
786-0 renal = system: 786-0 renal
K-562 leukemia = system: K-562 leukemia
SN12C renal = system: SN12C renal
SW-620 colon = system: SW-620 colon
COLO 205 colon = system: COLO 205 colon
DU-145 prostate = system: DU-145 prostate
KM12 colon = system: KM12 colon
TK-10 renal = system: TK-10 renal
RPMI-8226 leukemia = system: RPMI-8226 leukemia
IGROV1 ovarian = system: IGROV1 ovarian
SF-539 CNS = system: SF-539 CNS
HT29 colon = system: HT29 colon
MDA-MB-231 breast = system: MDA-MB-231 breast
SK-MEL-5 melanoma = system: SK-MEL-5 melanoma
OVCAR-5 ovarian = system: OVCAR-5 ovarian
HCT-116 colon = system: HCT-116 colon
MCF7 breast = system: MCF7 breast
RXF 393 renal = system: RXF 393 renal
SK-MEL-28 melanoma = system: SK-MEL-28 melanoma
T-47D breast = system: T-47D breast
MDA-MB-435 = system: MDA-MB-435
CAKI-1 renal = system: CAKI-1 renal
HL-60(TB) leukemia = system: HL-60(TB) leukemia
SNB-75 CNS = system: SNB-75 CNS
HOP-62 NSCLC = system: HOP-62 NSCLC
SK-OV-3 ovarian = system: SK-OV-3 ovarian
HS 578T breast = system: HS 578T breast
ACHN renal = system: ACHN renal
HCT-15 colon = system: HCT-15 colon
PC-3 prostate = system: PC-3 prostate
OVCAR-8 ovarian = system: OVCAR-8 ovarian
UACC-257 melanoma = system: UACC-257 melanoma
SK-MEL-2 melanoma = system: SK-MEL-2 melanoma
NCI-H522 lung = system: NCI-H522 lung
OVCAR-4 ovarian = system: OVCAR-4 ovarian
SNB-19 CNS = system: SNB-19 CNS
SF-268 CNS = system: SF-268 CNS
UO-31 renal = system: UO-31 renal
SF-295 CNS = system: SF-295 CNS
BT-549 breast = system: BT-549 breast
LOX IMVI melanoma = system: LOX IMVI melanoma
A549 NSCLC = system: A549 NSCLC
NCI-H460 lung = system: NCI-H460 lung

CN1CCN(Cc2ccc(NC(=O)c3cncc(C#Cc4cnc(N)nc4)c3)cc2C(F)(F)F)CC1
GI50 (UACC-62 melanoma): 298 nM
TGI (UACC-62 melanoma): 3390 nM
GI50 (HCC-2998 colon): 1350 nM
TGI (HCC-2998 colon): 9530 nM
GI50 (EKVX NSCLC): 1200 nM
TGI (EKVX NSCLC): 14600 nM
GI50 (CCRF-CEM leukemia): 1160 nM
TGI (CCRF-CEM leukemia): 16000 nM
GI50 (OVCAR-3 ovarian): 957 nM
TGI (OVCAR-3 ovarian): 10100 nM
GI50 (A498 renal): 228 nM
TGI (A498 renal): 1140 nM
GI50 (MOLT-4 leukemia): 449 nM
TGI (MOLT-4 leukemia): 11600 nM
GI50 (HOP-92 NSCLC): 157 nM
TGI (HOP-92 NSCLC): 1230 nM
GI50 (NCI/ADR-RES ovarian): 3560 nM
TGI (NCI/ADR-RES ovarian): 19900 nM
GI50 (U251 CNS): 521 nM
TGI (U251 CNS): 9280 nM
GI50 (SR leukemia): 425 nM
TGI (SR leukemia): 8480 nM
GI50 (NCI-H226 lung): 203 nM
TGI (NCI-H226 lung): 2220 nM
GI50 (M14 melanoma): 178 nM
TGI (M14 melanoma): 1280 nM
GI50 (MALME-3M melanoma): 150 nM
TGI (MALME-3M melanoma): 653 nM
GI50 (786-0 renal): 849 nM
TGI (786-0 renal): 5790 nM
GI50 (K-562 leukemia): 5 nM
TGI (K-562 leukemia): 50000 nM
GI50 (SN12C renal): 332 nM
TGI (SN12C renal): 5740 nM
GI50 (SW-620 colon): 490 nM
TGI (SW-620 colon): 6410 nM
GI50 (COLO 205 colon): 398 nM
TGI (COLO 205 colon): 5610 nM
GI50 (DU-145 prostate): 385 nM
TGI (DU-145 prostate): 11400 nM
GI50 (KM12 colon): 52.1 nM
TGI (KM12 colon): 7270 nM
GI50 (TK-10 renal): 810 nM
TGI (TK-10 renal): 7170 nM
GI50 (RPMI-8226 leukemia): 660 nM
TGI (RPMI-8226 leukemia): 6430 nM
GI50 (IGROV1 ovarian): 189 nM
TGI (IGROV1 ovarian): 5210 nM
GI50 (SF-539 CNS): 263 nM
TGI (SF-539 CNS): 3780 nM
GI50 (HT29 colon): 351 nM
TGI (HT29 colon): 6010 nM
GI50 (MDA-MB-231 breast): 258 nM
TGI (MDA-MB-231 breast): 3460 nM
GI50 (SK-MEL-5 melanoma): 1180 nM
TGI (SK-MEL-5 melanoma): 5700 nM
GI50 (OVCAR-5 ovarian): 994 nM
TGI (OVCAR-5 ovarian): 9760 nM
GI50 (HCT-116 colon): 231 nM
TGI (HCT-116 colon): 5160 nM
GI50 (MCF7 breast): 1470 nM
TGI (MCF7 breast): 11600 nM
GI50 (RXF 393 renal): 346 nM
TGI (RXF 393 renal): 4180 nM
GI50 (SK-MEL-28 melanoma): 560 nM
TGI (SK-MEL-28 melanoma): 3540 nM
GI50 (T-47D breast): 916 nM
TGI (T-47D breast): 50000 nM
GI50 (MDA-MB-435): 247 nM
TGI (MDA-MB-435): 5560 nM
GI50 (CAKI-1 renal): 150 nM
TGI (CAKI-1 renal): 763 nM
GI50 (HL-60(TB) leukemia): 283 nM
TGI (HL-60(TB) leukemia): 3590 nM
GI50 (SNB-75 CNS): 123 nM
TGI (SNB-75 CNS): 1000 nM
GI50 (HOP-62 NSCLC): 952 nM
TGI (HOP-62 NSCLC): 6430 nM
GI50 (SK-OV-3 ovarian): 174 nM
TGI (SK-OV-3 ovarian): 1120 nM
GI50 (HS 578T breast): 331 nM
TGI (HS 578T breast): 2290 nM
GI50 (ACHN renal): 244 nM
TGI (ACHN renal): 5230 nM
GI50 (HCT-15 colon): 556 nM
TGI (HCT-15 colon): 12900 nM
GI50 (PC-3 prostate): 821 nM
TGI (PC-3 prostate): 17200 nM
GI50 (OVCAR-8 ovarian): 1070 nM
TGI (OVCAR-8 ovarian): 9570 nM
GI50 (UACC-257 melanoma): 773 nM
TGI (UACC-257 melanoma): 6120 nM
GI50 (SK-MEL-2 melanoma): 110 nM
TGI (SK-MEL-2 melanoma): 339 nM
GI50 (NCI-H522 lung): 376 nM
TGI (NCI-H522 lung): 6930 nM
GI50 (OVCAR-4 ovarian): 553 nM
TGI (OVCAR-4 ovarian): 9750 nM
GI50 (SNB-19 CNS): 4380 nM
TGI (SNB-19 CNS): 27600 nM
GI50 (SF-268 CNS): 930 nM
TGI (SF-268 CNS): 8720 nM
GI50 (UO-31 renal): 396 nM
TGI (UO-31 renal): 2880 nM
GI50 (SF-295 CNS): 1430 nM
TGI (SF-295 CNS): 9220 nM
GI50 (BT-549 breast): 1240 nM
TGI (BT-549 breast): 5470 nM
GI50 (LOX IMVI melanoma): 189 nM
TGI (LOX IMVI melanoma): 846 nM
GI50 (A549 NSCLC): 1010 nM
TGI (A549 NSCLC): 8740 nM
GI50 (NCI-H460 lung): 306 nM
TGI (NCI-H460 lung): 6230 nM
